Assay results: ChEMBL document CHEMBL5126642, “Triazine-Based Covalent DNA-Encoded Libraries for Discovery of Covalent Inhibitors of Target Proteins” (ACS Med Chem Lett, 2022)

Legend:
[1] = biological target: Peptidyl-prolyl cis-trans isomerase NIMA-interacting 1 (Homo sapiens, UniProt Q13526); experiment: Inhibition of GST-tagged Pin1 (unknown origin) using Suc-AEPF-pNA peptide as substrate incubated for 3 hrs
[2] = biological target: Tyrosine-protein kinase BTK (Homo sapiens, UniProt Q06187); experiment: Inhibition of BTK (unknown origin) using TK peptide as substrate incubated for 1 hr in presence of ATP by HTRF assay
[3] = biological target: T1, Tyrosine-protein kinase JAK3 (Homo sapiens, UniProt P52333); experiment: Inhibition of JAK3 (unknown origin) using TK peptide as substrate incubated for 1 hr in presence of ATP by HTRF assay
T1 sequence (P52333 whole entry): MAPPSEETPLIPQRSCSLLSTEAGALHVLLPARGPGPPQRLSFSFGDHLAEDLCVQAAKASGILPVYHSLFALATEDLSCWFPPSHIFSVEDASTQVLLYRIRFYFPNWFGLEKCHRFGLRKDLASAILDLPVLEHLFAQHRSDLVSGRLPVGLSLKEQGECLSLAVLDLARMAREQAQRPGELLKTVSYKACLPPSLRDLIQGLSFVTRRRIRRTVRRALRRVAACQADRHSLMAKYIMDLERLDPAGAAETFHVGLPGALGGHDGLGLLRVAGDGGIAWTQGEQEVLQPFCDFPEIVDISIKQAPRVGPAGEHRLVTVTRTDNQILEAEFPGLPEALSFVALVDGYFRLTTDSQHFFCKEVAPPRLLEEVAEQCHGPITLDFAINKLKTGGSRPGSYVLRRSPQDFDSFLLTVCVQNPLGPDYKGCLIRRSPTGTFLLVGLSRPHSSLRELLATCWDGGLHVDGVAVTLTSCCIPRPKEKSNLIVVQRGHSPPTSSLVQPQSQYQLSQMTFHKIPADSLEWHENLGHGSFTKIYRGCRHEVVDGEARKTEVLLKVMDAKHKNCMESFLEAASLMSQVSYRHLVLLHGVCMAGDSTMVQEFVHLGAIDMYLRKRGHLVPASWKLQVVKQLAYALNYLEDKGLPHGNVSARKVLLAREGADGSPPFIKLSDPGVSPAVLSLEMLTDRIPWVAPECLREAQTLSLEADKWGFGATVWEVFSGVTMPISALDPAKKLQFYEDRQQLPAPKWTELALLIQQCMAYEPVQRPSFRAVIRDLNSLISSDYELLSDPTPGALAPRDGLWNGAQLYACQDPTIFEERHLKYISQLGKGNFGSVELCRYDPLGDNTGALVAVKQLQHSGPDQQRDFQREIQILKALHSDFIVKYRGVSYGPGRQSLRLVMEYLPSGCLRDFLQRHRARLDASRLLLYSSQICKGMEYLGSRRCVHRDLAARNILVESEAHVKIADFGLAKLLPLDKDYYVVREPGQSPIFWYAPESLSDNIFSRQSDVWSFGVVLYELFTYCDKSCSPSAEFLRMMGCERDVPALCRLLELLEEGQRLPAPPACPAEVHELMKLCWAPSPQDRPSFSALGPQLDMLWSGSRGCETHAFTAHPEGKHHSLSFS

Tyrosine-protein kinase BTK, sequence (Q06187 whole entry): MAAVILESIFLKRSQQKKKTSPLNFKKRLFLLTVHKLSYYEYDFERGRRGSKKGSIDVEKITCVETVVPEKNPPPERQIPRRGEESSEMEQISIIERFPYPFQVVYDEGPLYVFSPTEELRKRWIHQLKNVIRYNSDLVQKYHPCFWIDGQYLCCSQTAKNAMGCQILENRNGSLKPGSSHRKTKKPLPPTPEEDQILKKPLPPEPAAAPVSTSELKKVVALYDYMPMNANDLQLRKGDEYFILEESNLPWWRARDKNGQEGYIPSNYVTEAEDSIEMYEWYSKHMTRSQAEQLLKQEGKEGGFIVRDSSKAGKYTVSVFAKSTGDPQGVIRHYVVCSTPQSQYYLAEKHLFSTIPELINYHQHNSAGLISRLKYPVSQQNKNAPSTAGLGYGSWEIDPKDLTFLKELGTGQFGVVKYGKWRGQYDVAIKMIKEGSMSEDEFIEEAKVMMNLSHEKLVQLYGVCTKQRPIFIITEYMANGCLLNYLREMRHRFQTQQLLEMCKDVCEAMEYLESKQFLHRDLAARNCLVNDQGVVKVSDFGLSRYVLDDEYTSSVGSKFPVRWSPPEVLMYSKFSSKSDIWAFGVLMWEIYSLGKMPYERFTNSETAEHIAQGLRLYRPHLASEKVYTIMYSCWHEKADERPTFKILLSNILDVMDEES
Peptidyl-prolyl cis-trans isomerase NIMA-interacting 1, sequence (Q13526 whole entry): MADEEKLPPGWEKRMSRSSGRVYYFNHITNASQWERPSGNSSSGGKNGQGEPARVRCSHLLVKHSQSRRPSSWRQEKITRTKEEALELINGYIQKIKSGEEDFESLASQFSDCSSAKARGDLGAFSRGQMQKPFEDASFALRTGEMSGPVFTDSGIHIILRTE

Row | Compound | IC50 [1] | IC50 [2] | IC50 [3]
1 | CNc1nc(Nc2ccc3cn[nH]c3c2)nc(N2CC3CC2CN3C(=O)CCl)n1 (stereo not given) | 1690 nM |  | 
2 | C=CC(=O)N1CC2CC1CN2c1nc(NC)nc(Nc2cc[nH]n2)n1 (stereo not given) |  | 16.1 nM | 699 nM
3 | C=CC(=O)Nc1cccc(CNc2nc(NC)nc(Nc3cc(C(C)(C)C)[nH]n3)n2)c1 |  | 98.3 nM | 6.16 nM
4 | CNc1nc(NCc2cccc(NC(=O)CCl)c2)nc(Nc2cc(C(C)(C)C)[nH]n2)n1 |  | 1900 nM | 8.97 nM
5 | CNc1nc(NC(c2ccccc2)c2cccc(S(C)(=O)=O)c2)nc(N2CCN(C(=O)CCl)CC2)n1 (stereo not given) | 3200 nM |  | 
6 | CNc1nc(NCC(NC(=O)CCl)c2ccccc2)nc(Nc2cc(C(C)(C)C)[nH]n2)n1 (stereo not given) |  | 638 nM | 32.6 nM
